Experimental data: patent US20040019018A1, “Rigid pyrrolidone modulators of pkc” (priority 2003, published 2004)
“And” between values parts separate entries of the source, which are not always exact repeats. Identical values can stand only once.

Assays:
Experiment in all cases: [3H]PDBu displacement from recombinant PKC isozyme (baculovirus)
Type in all cases: binding
Settings in all cases: [3H]PDBu competition
[1] = target: T1, α-PKC (Homo sapiens, UniProt P17252)
T1 construct: made in house; host or cells: Sf9 cells (baculovirus)
Description: (§1) The ability of representative compounds of the invention to bind specific isozymes of PKC was determined using an assay (Example 13) in which displacement of [20-^3H]phorbol -12,13-dibutyrate ([^3H]PDBu) from either recombinant PKC isozymes prepared in a Baculovirus system, or unresolved mixture of isozymes of PKC isolated from whole brain extracts, was used. These procedures are described below. […] (See the key that follows)
(§2) Analysis of [20-^3H]phorbol 12,13-dibutyrate binding to PKC. Specific binding of [^3H]PDBu to PKC was carried out as described (Kazanietz, et al., Mol. Pharmacol. 44:298-307 (1993)). [^3H]PDBu (20.0 Ci/mmol) was obtained from New England Nuclear. Phosphatidylserine and bovine […] were obtained from Sigma Chemical Co. Binding was determined in an incubation volume of 250 μl, containing [^3H]PDBu, PKC, 0.05 M Tris-Cl, pH 7.4, 100 μg/ml phosphatidylserine, various concentrations of the ligand being assayed for competition of [^3H]PDBu binding, and bovine […] at 1 mg/ml. In the case of the classical PKCs (α, β, […]) CaCl2 was included at a concentration of 0.1 mM. Liposomes of phosphatidylserine were prepared as follows. The phosphatidylserine solutions were dried down from CHCl3 under a stream of N2. After addition of 0.05 M Tris-Cl, pH 7.4, liposomes were prepared by sonication for 30 sec with the microtip probe of Sonifier Cell Disrupter (Heat Systems-Ultrasonics). [^3H]PDBu was used at a concentration twice the Kd previously determined for the specific receptor. Ligands were assayed over a concentration range of 3 orders of magnitude. Ligands were diluted in 0.05 M Tris-Cl, pH 7.4 containing 1 mg/ml bovine g-globulin. If the compounds were not soluble at the highest concentration used, they were dissolved in organic solvent (CHCl3 or ethanol) and mixed with the phosphatidylserine dissolved in CHCl3. The solvent was removed under a stream of N2.
(§3) Mixed liposomes were then prepared, as described for the preparation of the liposomes of phosphatidylserine alone, by the addition of 0.05 M Tris-Cl, pH 7.4, and sonication for 30 sec with the microtip probe of a Sonifier Cell Disrupter (Heat Systems-Ultrasonics). Incubation was for 5 min at 37° C. The samples were then be cooled to 4° C. for 8 min and 200 μl of 35% polyethylene glycol in 0.05 M Tris-Cl, pH 7.4 (w:w) added. After vigorous mixing, the samples were incubated for 15 min to allow precipitation of the receptor. The precipitate was recovered by centrifugation at 12,000 rpm in a Beckman microcentrifuge at 4° C. A 100 μl aliquot of the supernatant was removed and its radioactivity determined in a Wallac liquid scintillation counter, Model 1409. This value provided a measure of the concentration of unbound [^3H]PDBu. The remainder of the supernatant was removed by aspiration and blotting with absorbent tissue. The tip of the centrifuge tube was cut off and the radioactivity in the pellet measured to determine total bound [^3H]PDBu. Non-specific binding of [^3H]PDBu was measured in the presence of 30 μM non-radioactive PDBu and used to determine an apparent partition coefficient for [^3H]PDBu under these assay conditions.
(§4) Specific binding represents the difference between total binding and the non-specific binding, where the latter value was calculated from the partition coefficient and the measured free [^3H]PDBu concentration in each tube. In each experiment, triplicate determinations were performed at each concentration of competing ligand.

[2] = target: T2, γ-PKC (Homo sapiens, UniProt P05129)
T2 construct: made in house; host or cells: Sf9 cells (baculovirus)
Description: as §1, §2, §3, §4

[3] = target: T3, ε-PKC (Homo sapiens, UniProt Q02156)
T3 sequence (Q02156 1-737): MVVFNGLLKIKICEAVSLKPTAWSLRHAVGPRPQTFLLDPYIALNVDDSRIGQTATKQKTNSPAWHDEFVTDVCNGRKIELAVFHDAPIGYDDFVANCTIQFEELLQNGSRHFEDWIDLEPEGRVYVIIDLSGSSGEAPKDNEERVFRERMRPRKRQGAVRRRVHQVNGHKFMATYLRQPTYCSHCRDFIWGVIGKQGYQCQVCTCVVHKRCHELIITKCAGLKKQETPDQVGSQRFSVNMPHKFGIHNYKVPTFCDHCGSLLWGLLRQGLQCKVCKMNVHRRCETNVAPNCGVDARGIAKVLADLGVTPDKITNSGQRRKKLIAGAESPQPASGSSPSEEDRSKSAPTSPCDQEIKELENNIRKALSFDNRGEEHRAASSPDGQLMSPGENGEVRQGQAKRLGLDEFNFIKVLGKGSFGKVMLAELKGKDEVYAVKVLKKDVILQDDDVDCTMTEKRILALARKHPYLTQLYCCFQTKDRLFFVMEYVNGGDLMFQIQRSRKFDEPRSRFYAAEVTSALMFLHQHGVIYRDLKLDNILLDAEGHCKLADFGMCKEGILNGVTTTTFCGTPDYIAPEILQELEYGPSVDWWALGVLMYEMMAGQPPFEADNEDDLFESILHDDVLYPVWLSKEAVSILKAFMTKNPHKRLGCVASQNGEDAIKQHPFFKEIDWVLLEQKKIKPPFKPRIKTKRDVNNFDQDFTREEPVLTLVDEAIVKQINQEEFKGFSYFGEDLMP
Description: as §1, §2, §3, §4

| SMILES | Ki [1] [µM] | Ki [2] [µM] | Ki [3] |
| --- | --- | --- | --- |
| CCCCCCCCC#Cc1ccc2c(c1)C(C)(C(C)C)C1C(=O)NC(CO)C21 [Compound 1, (3S, 8R, 9S, 10S)-6-(dec-1′-ynyl)-3-hydroxymethyl-8-isopropyl-8-methyl-3,3a,8,8a-tetrahydro-2H-2-aza-cyclopenta[a]inden-1-one] | 0.58 ± 0.214 | 0.279 ± 0.05 | 0.469 µM and 0.946 µM |
| CCCCCCCCCCCC(=O)Oc1ccc2c(c1)[C@](C)(C(C)C)[C@H]1C(=O)N[C@H](CO)[C@@H]21 [Compound 2, (3S, 8R, 9S, 10S)-6-dodecanoyloxyl-3-hydroxymethyl-8-isopropyl-8-methyl-3,3a,8,8a-tetrahydro-2H -2-aza-cyclopenta[a]inden-1-one] | 0.395 ± 0.071 | 0.209 ± 0.038 | 0.515 ± 0.155 µM |
| CCCCCCCCCCCC(=O)Oc1ccc2c(c1)[C@@](C)(C(C)C)[C@H]1C(=O)N[C@H](CO)[C@@H]21 [Compound 3, (3S, 8S, 9S, 10S)-6-dodecanoyloxyl-3-hydroxymethyl-8-isopropyl-8-methyl-3,3a,8,8a-tetrahydro-2H -2-aza-cyclopenta[a]inden-1-one] | 0.674 ± 0.249 | 0.327 ± 0.065 | 0.228 ± 0.043 µM |
| CCCCCCCCCCCC(=O)Oc1cc2c(cc1C(C)=O)[C@@H]1[C@@H](CO)NC(=O)[C@@H]1[C@]2(C)C(C)C [Compound 4, (3S, 8S, 9S, 10S)-5-acetyl-6-dodecanoyloxyl-3-hydroxymethyl-8-isopropyl-8-methyl-3,3a,8,8a-tetrahydro-2H -2-aza-cyclopenta[a]inden-1-one] | 2.25 ± 0.585 | 3.65 ± 1.09 | 5.1 ± 3.11 µM |
| CCCCCCCCCCCC(=O)Oc1cc2c(cc1Br)[C@@H]1[C@@H](CO)NC(=O)[C@@H]1[C@]2(C)C(C)C [Compound 5, (3S, 8S, 9S, 10S)-5-bromo-6-dodecanoyloxyl-3-hydroxymethyl-8-isopropyl-8-methyl-3,3a,8,8a-tetrahydro-2H -2-aza-cyclopenta[a]inden-1-one] | 2.98 ± 1.04 | 1.23 ± 0.258 | 1.3 ± 0.377 µM |
| CCCCCCCCCCCC(=O)Oc1cc2c(cc1C(C)=O)[C@@H]1[C@@H](CO)NC(=O)[C@@H]1[C@@]2(C)C(C)C [Compound 11, (3S, 8R, 9S, 10S)-5-acetyl-6-dodecanoyloxyl-3-hydroxymethyl-8-isopropyl-8-methyl-3,3a,8,8a-tetrahydro-2H -2-aza-cyclopenta[a]inden-1-one] | > 10 | > 10 | > 10 µM |
